Measured values reported in ChEMBL document CHEMBL4177690, “(E)-3-(3,4,5-Trimethoxyphenyl)-1-(pyridin-4-yl)prop-2-en-1-one, a heterocyclic chalcone is a potent and selective CYP1A1 inhibitor and cancer chemopreventive agent” (Bioorg Med Chem Lett, 2017).

Key:
Cytochrome P450 2B6 = target: T1, Cytochrome P450 2B6 (Homo sapiens, UniProt P20813); assay: Inhibition of human CYP2B6 expressed in yeast cells; format: ADME, cell-based
T1 sequence (P20813 whole entry): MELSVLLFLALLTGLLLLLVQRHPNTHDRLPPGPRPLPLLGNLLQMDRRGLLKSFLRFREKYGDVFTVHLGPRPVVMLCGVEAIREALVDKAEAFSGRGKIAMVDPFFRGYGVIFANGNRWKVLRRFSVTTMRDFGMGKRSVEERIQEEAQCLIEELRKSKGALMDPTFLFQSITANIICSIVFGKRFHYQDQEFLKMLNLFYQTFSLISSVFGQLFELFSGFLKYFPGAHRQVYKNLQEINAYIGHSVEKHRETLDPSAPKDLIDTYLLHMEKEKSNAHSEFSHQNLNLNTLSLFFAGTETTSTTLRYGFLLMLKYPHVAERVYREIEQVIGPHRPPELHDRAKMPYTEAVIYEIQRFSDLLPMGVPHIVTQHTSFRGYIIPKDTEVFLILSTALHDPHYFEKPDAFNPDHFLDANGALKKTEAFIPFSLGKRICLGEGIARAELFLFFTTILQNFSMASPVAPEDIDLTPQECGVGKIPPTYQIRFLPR

Cytochrome P450 1A1 [1] = target: T2, Cytochrome P450 1A1 (Homo sapiens, UniProt P04798); assay: Time-dependent inhibition of human CYP1A1 expressed in yeast microsomal membranes using 7-ethoxyresorufin as substrate; format: cell membranes
T2 sequence (P04798 whole entry): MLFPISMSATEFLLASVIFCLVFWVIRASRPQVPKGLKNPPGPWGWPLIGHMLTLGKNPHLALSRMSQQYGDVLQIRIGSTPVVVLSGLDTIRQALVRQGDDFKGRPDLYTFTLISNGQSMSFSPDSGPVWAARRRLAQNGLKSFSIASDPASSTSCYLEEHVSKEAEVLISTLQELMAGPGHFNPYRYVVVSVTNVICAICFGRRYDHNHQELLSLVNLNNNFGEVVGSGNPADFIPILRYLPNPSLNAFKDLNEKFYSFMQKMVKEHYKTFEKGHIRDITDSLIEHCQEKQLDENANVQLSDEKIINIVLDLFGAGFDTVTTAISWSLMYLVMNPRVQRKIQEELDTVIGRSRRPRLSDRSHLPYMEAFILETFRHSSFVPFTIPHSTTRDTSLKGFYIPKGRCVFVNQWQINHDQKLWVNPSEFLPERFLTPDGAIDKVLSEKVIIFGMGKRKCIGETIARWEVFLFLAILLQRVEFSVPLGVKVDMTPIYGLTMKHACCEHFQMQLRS

Cytochrome P450 2D6 = Cytochrome P450 2D6 (Homo sapiens, UniProt P10635); assay: Inhibition of recombinant human CYP2D6 expressed in HEK293 cells using 7-ethoxy-methyloxy-3-cyanocoumarin as substrate pretreated for 30 mins followed by substrate addition measured for 60 mins by fluorescence assay; format: ADME, cell-based
Cytochrome P450 1A1 [2] = target: T2, Cytochrome P450 1A1; assay: Inhibition of human CYP1A1 expressed in yeast microsomal membranes using 7-ethoxyresorufin as substrate measured after 10 mins by fluorescence assay; format: cell membranes
Cytochrome P450 1A1 [3] = target: T2, Cytochrome P450 1A1; assay: Inhibition of human CYP1A1 expressed in yeast cells; format: cell-based
Cytochrome P450 1B1 = target: T3, Cytochrome P450 1B1 (Homo sapiens, UniProt Q16678); assay: Inhibition of human CYP1B1 expressed in yeast microsomal membranes using 7-ethoxyresorufin as substrate measured after 10 mins by fluorescence assay; format: cell membranes
T3 sequence (Q16678 whole entry): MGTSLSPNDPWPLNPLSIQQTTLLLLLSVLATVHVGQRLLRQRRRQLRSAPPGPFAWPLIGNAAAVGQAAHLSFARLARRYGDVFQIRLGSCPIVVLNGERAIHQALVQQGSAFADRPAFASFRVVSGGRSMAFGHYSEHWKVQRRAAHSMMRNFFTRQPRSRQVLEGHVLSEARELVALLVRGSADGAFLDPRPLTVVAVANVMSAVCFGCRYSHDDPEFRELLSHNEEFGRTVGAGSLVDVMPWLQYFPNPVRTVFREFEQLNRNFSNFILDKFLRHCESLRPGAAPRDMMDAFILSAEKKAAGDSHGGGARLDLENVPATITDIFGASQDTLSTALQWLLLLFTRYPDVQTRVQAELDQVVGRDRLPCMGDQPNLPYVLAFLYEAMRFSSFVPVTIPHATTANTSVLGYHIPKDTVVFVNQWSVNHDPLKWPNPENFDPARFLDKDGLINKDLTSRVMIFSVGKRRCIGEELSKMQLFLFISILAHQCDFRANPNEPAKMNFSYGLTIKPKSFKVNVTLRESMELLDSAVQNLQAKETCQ

Homo sapiens = organism: Homo sapiens; assay: Selectivity ratio of IC50 for human CYP1B1 expressed in yeast microsomal membranes to IC50 for human CYP1A1 expressed in yeast microsomal membranes; format: cell membranes
Cytochrome P450 2E1 = Cytochrome P450 2E1 (Homo sapiens, UniProt P05181); assay: Inhibition of human CYP2E1 expressed in yeast cells; format: ADME, cell-based
Cytochrome P450 2C8 = target: T4, Cytochrome P450 2C8 (Homo sapiens, UniProt P10632); assay: Inhibition of human CYP2C8 expressed in yeast cells; format: ADME, cell-based
T4 sequence (P10632 whole entry): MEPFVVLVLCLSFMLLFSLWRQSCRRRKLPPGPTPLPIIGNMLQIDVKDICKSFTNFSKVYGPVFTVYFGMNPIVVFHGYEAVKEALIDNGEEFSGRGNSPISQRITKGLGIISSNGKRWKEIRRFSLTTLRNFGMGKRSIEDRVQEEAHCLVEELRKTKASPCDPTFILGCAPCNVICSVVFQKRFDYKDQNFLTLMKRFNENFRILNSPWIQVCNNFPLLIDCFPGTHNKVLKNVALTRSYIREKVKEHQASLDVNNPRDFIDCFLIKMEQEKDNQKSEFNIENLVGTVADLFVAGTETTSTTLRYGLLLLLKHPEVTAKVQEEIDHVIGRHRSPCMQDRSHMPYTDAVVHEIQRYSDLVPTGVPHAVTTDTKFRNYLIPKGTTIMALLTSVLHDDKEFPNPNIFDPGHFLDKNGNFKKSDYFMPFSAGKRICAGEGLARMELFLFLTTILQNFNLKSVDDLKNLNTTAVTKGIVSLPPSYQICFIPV

Cytochrome P450 2J2 = target: T5, Cytochrome P450 2J2 (Homo sapiens, UniProt P51589); assay: Inhibition of human CYP2J2 expressed in yeast cells; format: ADME, cell-based
T5 sequence (P51589 whole entry): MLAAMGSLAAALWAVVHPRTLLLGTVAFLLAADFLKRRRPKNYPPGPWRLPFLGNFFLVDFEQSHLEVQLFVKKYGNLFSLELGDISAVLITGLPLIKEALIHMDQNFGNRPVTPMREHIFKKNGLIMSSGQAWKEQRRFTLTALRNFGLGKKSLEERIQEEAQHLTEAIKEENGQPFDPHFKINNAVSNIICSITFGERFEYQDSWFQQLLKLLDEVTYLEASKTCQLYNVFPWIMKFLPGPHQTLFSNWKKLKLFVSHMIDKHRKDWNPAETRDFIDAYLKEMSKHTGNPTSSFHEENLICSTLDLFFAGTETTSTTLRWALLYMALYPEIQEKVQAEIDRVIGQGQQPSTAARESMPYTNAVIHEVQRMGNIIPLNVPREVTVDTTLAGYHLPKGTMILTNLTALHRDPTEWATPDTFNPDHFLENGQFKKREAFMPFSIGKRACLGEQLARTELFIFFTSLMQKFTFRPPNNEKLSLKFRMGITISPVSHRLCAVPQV

Chain of Cytochrome P450 2E1 (P05181 whole entry): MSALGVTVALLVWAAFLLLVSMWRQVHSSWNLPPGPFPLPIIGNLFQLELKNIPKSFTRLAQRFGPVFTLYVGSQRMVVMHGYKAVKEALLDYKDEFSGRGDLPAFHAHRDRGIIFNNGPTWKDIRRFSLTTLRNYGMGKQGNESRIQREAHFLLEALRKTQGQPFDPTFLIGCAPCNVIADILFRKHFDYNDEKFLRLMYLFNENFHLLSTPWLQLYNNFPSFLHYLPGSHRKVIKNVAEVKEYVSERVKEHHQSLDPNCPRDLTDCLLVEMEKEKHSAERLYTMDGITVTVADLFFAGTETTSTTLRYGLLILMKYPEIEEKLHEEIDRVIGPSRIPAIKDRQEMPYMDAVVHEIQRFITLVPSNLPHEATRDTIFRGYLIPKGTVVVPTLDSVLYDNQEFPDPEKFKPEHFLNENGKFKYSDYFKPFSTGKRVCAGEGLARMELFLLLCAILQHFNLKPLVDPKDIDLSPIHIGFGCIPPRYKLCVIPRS
Chain of Cytochrome P450 2D6 (P10635 whole entry): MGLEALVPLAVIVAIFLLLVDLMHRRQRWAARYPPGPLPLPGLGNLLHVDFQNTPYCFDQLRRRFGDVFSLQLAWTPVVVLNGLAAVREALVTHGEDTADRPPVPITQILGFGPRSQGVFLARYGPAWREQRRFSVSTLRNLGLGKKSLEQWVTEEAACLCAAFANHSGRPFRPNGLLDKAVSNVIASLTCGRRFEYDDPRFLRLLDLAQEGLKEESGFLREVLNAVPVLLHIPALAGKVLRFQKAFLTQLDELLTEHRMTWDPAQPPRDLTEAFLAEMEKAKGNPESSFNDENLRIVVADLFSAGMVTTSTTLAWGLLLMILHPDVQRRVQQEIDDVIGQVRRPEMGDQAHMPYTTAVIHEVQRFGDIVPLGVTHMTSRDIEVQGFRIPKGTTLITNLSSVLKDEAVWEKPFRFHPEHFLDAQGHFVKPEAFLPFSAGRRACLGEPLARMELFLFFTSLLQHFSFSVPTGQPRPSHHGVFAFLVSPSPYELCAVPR

Which IC50 (Cytochrome P450 2B6) does the source give for `COc1cc(/C=C/C(=O)c2ccncc2)cc(OC)c1OC` here?
The IC50 was greater than 10 µM.

What about the TDI (Cytochrome P450 1A1 [1]) of the same molecule?
The TDI was “Not Active”.

And the IC50 (Cytochrome P450 2D6)?
Its IC50 is greater than 10 µM.

And the IC50 (Cytochrome P450 1A1 [2])?
The IC50 was 0.061 µM.

What about the IC50 (Cytochrome P450 1A1 [3]) of the same molecule?
Its IC50 is 0.15 µM.

What about the IC50 (Cytochrome P450 1B1) of the same molecule?
Its IC50 is 5.21 µM.

And the Ratio IC50 (Homo sapiens)?
Its Ratio IC50 is greater than 10.

And the IC50 (Cytochrome P450 2E1)?
Its IC50 is greater than 10 µM.

What about the IC50 (Cytochrome P450 2C8) of the same molecule?
The IC50 was 8.92 µM.

What about the IC50 (Cytochrome P450 2J2) of the same molecule?
Its IC50 is greater than 20 µM.
